One assay addresses PI3K-α (Homo sapiens, UniProt P42336). The assay can be described thus: PI3K-alpha fluorescence polarization assay. As to conditions: 20 μM PIP2, 25 μM ATP. The format is biochemical. On the procedure:
(§1) The reaction buffer was 20 mM HEPES pH7.5, 2 mM MgCl2, 0.05% CHAPS, and 0.01% βME (added fresh). The substrate solution was 40 μM PIP2 (diC8, Echelon, Salt Lake City Utah cat #P-4508, 1 mM in water) and 50 μM ATP in the reaction buffer. Nunc 384-well black polypropylene fluorescent plates were used for PI3K assays. The assay is run by putting 9.5 μl of freshly diluted enzyme in the reaction buffer per well, adding 0.5 μl of diluted drug or DMSO, and mixing. Then 10 μl of the substrate solution is added to each well to start the reaction. A final concentration of 20 μM PIP2 and 25 μM ATP in the reaction was used. Reactions were allowed to proceed for 30-60 minutes at room temperature. After 30-60 minutes, 20 μl of a solution of 10 nM TAMRA detector (Red detector probe-Echelon) and 2.5 uM of GST-murineGRP (1.5 mg/ml in 17% glycerol) was added per well to stop the reaction. The resulting solution was mixed well and allowed to stand for 90-110 minutes before reading plate. Assay Plates were read on Perkin-Elmer Envision plate readers with appropriate filters for Tamra [BODIPY-TMRI(1,3,4,5)P4]. Data obtained were used to calculate enzymatic activity and enzyme inhibition by inhibitor compounds. It is important to keep Red probe solutions dark. This procedure is adapted from Echelon Biosciences Inc procedure for their PI3-Kinase fluorescence polarization activity Assay kit Product number K-1100.
A general note: In fluorescence polarisation assays a small probe gives low polarisation when free and higher when bound to something large.

A further assay addresses PI3K-γ (Homo sapiens, UniProt P48736). The assay can be described thus: PI3K-gamma fluorescence polarization assay. As to conditions: 20 μM PIP2, 25 μM ATP. The format is biochemical. On the procedure:
as §1

Some results are limits rather than exact numbers.

Data on 13 compounds can be found in patent US20100015141A1, “4-PHENOXY-6-ARYL-1H-PYRAZOLO[3,4-D]PYRIMIDINE AND N-ARYL-6-ARYL-1H-PYRAZOLO[3,4-D]PYRIMIDIN-4-AMINE COMPOUNDS, THEIR USE AS MTOR KINASE AND PI3 KINASE INHIBITORS, AND THEIR SYNTHESES” (Wyeth, priority 2008, published 2010).

PI3K-γ, sequence (P48736 whole entry, species assumed): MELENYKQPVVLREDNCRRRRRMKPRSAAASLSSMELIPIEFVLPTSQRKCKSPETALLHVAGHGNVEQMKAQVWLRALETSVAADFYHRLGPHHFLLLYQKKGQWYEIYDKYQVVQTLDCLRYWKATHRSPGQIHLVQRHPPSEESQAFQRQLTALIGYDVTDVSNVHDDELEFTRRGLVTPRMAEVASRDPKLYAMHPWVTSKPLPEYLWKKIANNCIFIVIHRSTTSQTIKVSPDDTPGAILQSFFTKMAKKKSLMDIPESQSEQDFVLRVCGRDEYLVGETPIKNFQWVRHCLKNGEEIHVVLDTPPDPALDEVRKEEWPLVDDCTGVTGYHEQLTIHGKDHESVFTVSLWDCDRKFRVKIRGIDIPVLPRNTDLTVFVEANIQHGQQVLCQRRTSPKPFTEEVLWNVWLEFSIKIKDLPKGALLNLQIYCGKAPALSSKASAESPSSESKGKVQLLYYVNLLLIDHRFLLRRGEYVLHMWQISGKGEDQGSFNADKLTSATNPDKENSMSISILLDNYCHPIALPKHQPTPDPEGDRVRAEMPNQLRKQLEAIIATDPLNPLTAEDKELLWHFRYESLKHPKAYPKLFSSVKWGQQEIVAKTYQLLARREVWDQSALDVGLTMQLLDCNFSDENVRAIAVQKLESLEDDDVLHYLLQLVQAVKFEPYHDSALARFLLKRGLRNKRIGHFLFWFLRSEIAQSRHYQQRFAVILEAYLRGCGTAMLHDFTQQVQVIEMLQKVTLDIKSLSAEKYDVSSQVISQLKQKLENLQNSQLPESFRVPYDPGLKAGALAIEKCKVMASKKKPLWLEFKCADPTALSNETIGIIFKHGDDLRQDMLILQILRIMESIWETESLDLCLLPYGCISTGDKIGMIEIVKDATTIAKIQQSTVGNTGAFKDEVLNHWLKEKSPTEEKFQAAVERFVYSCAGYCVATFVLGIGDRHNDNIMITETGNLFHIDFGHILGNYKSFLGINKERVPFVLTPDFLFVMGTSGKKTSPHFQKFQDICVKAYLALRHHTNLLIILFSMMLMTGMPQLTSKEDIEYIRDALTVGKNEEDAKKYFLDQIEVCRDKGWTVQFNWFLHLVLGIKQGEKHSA
PI3K-α, sequence (P42336 whole entry, species assumed): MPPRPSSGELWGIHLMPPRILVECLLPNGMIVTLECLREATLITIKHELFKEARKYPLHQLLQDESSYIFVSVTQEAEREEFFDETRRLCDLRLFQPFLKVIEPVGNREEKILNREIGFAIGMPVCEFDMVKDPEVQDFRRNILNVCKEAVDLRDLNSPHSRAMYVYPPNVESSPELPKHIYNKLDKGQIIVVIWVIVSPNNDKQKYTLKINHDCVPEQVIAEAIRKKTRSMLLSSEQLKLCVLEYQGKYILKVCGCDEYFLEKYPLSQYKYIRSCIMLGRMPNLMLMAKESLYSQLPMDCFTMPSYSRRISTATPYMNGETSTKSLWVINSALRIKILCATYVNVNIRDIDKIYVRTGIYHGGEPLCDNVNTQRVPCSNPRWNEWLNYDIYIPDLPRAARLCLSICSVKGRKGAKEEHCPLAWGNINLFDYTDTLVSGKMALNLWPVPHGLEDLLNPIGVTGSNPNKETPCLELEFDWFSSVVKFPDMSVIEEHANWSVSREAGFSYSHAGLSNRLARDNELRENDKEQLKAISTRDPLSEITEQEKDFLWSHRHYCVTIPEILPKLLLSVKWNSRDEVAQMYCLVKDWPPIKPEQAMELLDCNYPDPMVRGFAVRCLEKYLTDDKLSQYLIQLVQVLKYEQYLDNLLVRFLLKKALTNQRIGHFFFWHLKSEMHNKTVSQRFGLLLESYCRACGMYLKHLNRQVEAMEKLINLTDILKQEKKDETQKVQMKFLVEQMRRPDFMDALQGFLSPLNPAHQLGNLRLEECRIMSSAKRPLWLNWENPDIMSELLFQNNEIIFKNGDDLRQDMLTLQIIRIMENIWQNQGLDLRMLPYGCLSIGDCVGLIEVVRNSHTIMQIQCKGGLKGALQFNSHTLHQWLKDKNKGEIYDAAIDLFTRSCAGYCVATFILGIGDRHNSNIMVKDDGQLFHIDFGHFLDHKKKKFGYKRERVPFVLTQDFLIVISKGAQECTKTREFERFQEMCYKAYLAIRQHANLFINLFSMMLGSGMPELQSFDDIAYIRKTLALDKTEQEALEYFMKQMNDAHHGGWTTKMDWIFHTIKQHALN
PI3K-α, sequence (P27986 whole entry partner, species assumed): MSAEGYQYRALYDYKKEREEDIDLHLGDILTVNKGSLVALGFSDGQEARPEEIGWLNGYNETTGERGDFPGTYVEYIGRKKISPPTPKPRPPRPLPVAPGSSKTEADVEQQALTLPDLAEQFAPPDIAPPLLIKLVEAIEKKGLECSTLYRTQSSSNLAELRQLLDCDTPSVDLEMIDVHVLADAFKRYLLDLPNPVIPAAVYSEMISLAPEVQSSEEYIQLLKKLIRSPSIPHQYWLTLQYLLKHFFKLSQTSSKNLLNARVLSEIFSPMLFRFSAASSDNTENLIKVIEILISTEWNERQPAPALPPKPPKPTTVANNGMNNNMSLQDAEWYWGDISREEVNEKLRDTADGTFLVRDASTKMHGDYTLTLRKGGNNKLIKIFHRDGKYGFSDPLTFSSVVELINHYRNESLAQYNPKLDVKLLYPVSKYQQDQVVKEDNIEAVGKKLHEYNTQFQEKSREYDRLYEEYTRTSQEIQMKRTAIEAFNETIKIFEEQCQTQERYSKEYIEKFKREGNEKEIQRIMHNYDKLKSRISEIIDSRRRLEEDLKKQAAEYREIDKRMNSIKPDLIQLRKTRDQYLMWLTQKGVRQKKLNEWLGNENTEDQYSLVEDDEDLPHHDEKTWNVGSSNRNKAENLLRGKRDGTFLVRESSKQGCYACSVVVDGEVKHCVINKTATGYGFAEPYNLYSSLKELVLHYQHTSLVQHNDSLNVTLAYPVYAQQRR

In general, IC50 refers to the concentration that inhibits the measured activity by half. A low value points to greater potency. Turning to `CC(=O)Nc1cccc(Nc2nc(-c3ccccc3)nc3c2cnn3C2CCNCC2)c1` [Example 15, N-{3-[(6-phenyl-1-piperidin-4-yl-1H-pyrazolo[3,4-d]pyrimidin-4-yl)amino]phenyl}acetamide], the IC50 on PI3K-α was over 10 µM; at PI3K-γ, 8.3 µM.

Regarding `Cn1ncc2c(Oc3ccc4[nH]ccc4c3)nc(-c3cccc(-c4ccccc4)c3)nc21` [Example 44, 6-biphenyl-3-yl-4-(1H-indol-5-yloxy)-1-methyl-1H-pyrazolo[3,4-d]pyrimidine], the IC50 against PI3K-α is 2.87 µM; at PI3K-γ, over 10 µM.

On to `COc1cccc(-c2nc(Nc3ccc(C(N)=O)cc3)c3cnn(C4CCN(Cc5ccccc5)CC4)c3n2)c1` [Example 23, 4-{[1-(1-benzylpiperidin-4-yl)-6-(3-methoxyphenyl)-1H-pyrazolo[3,4-d]pyrimidin-4-yl]amino}benzamide], for which the IC50 against PI3K-α is 2.65 µM; at PI3K-γ it was 2.75 µM.

In the case of `Cn1ncc2c(Oc3ccc4[nH]ccc4c3)nc(-c3cccc(C(F)(F)F)c3)nc21` [Example 42, 4-(1H-indol-5-yloxy)-1-methyl-6-[3-(trifluoromethyl)phenyl]-1H-pyrazolo[3,4-d]pyrimidine], the IC50 on PI3K-α was determined as 1.21 µM; at PI3K-γ, 0.956 µM.

Regarding `Oc1cccc(-c2nc(Nc3ccc4[nH]ccc4c3)c3cnn(C4CCNCC4)c3n2)c1` [Example 19, 3-[4-(1H-indol-5-ylamino)-1-piperidin-4-yl-1H-pyrazolo[3,4-d]pyrimidin-6-yl]phenol], the figures for the IC50 against PI3K-α and on PI3K-γ were over 10 µM and 5.93 µM, respectively.

As to `CC(=O)Nc1ccc(Oc2nc(-c3cccc(C(F)(F)F)c3)nc3c2cnn3C)cc1` [Example 52, N-[4-({1-methyl-6-[3-(trifluoromethyl)phenyl]-1H-pyrazolo[3,4-d]pyrimidin-4-yl}oxy)phenyl]acetamide], the IC50 on PI3K-α was found to be 1.33 µM; on PI3K-γ, 10.5 µM.

In the case of `COc1ccc(Nc2nc(-c3cccc(O)c3)nc3c2cnn3C2CCNCC2)cc1OC` [Example 17, 3-{4[(3,4-dimethoxyphenyl)amino]-1-piperidin-4-yl-1H-pyrazolo[3,4-d]pyrimidin-6-yl}phenol], the IC50 is over 10 µM against PI3K-α and 5.84 µM at PI3K-γ.

As to `CC(=O)Nc1ccc(Oc2nc(-c3ccc(N(C)C)cc3)nc3c2cnn3C)cc1` [Example 51, N-[4-({6-[4-(dimethylamino)phenyl]-1-methyl-1H-pyrazolo[3,4-d]pyrimidin-4-yl}oxy)phenyl]acetamide], the IC50 against PI3K-α is 4.96 µM; on PI3K-γ, over 10 µM.

With `CC(=O)Nc1ccc(Oc2nc(-c3cccc(-c4ccccc4)c3)nc3c2cnn3C)cc1` [Example 53, N-{4-[(6-biphenyl-3-yl-1-methyl-1H-pyrazolo[3,4-d]pyrimidin-4-yl)oxy]phenyl}acetamide], the IC50 is 4.62 µM at PI3K-α and over 10 µM at PI3K-γ.

Take `NC(=O)c1ccc(Nc2nc(-c3ccc(O)cc3)nc3c2cnn3C2CCN(Cc3ccccc3)CC2)cc1` [Example 24, 4-{[1-(1-benzylpiperidin-4-yl)-6-(4-hydroxyphenyl)-1H-pyrazolo[3,4-d]pyrimidin-4-yl]amino}benzamide]: the IC50 was 5.45 µM at PI3K-α and 5.25 µM on PI3K-γ.

Take `NC(=O)c1ccc(Nc2nc(-c3cccc(O)c3)nc3c2cnn3C2CCN(Cc3ccccc3)CC2)cc1` [Example 6, 4-{[1-(1-benzylpiperidin-4-yl)-6-(3-hydroxyphenyl)-1H-pyrazolo[3,4-d]pyrimidin-4-yl]amino}benzamide]: the figures for the IC50 on PI3K-α and against PI3K-γ were 3.5 µM and 7 µM, respectively.

As for `CC(=O)Nc1cccc(Nc2nc(-c3ccccc3)nc3c2cnn3C2CCN(Cc3ccccc3)CC2)c1` [Example 5, N-(3-{[1-(1-benzylpiperidin-4-yl)-6-phenyl-1H-pyrazolo[3,4-d]pyrimidin-4-yl]amino}phenyl)acetamide], the IC50 stood at 8.31 µM at PI3K-α and 7 µM at PI3K-γ.

`COc1ccc(N(C)c2nc(-c3ccccc3)nc3c2cnn3C)cc1OC` [Example 36, N-(3,4-dimethoxyphenyl)-N,1-dimethyl-6-phenyl-1H-pyrazolo[3,4-d]pyrimidin-4-amine] had an IC50 at PI3K-α of over 9.75 µM.
